Patent US7070943B2 (priority 1998, dated 2006)

Experiments:
[1] = test system: underphosphorylated pRB; assay: pRB phosphorylation in mitogen-stimulated lymphocytes, anti-pRB^P− mAb flow cytometry; type: cell-based, Human
Experimental: (§1) Human peripheral blood lymphocytes, obtained from healthy volunteers by venipuncture, were isolated by density gradient centrifugation. The cells were washed twice with phosphate-buffered saline (PBS), resuspended in RPMI 1640 medium supplemented with 10% fetal calf serum, 100 units/ml penicillin, 100 μg/ml streptomycin and 2 mM L-glutamine at a density of 10^6 cells/ml, treated with 10 μg/ml of phytohemagglutinin (PHA) and incubated at 37.5° C. in the mixture of 95% air and 5% CO2 for the periods of time shown in the respective figure legends. The medium, supplements, and antibiotics were obtained from Life Technologies (Grand Island, N.Y.), PHA from Sigma Chemical Co. (St. Louis, Mo.).
Stock solution of staurosporine (STP; Kamiya Biomedical Co., Thousand Oaks, Calif.) was made in dimethyl sulfoxide (DMSO) at a concentration 0.2 mM and was stored at −20° C.
The cells were washed with PBS and fixed in suspension in 1% formaldehyde in PBS for 15 min on ice. The cells were then washed with PBS and resuspended in ice-cold 80% ethanol for up to 24 h. After fixation the cells were rinsed twice with PBS and resuspended in 100 μl of PBS containing 0.25% Triton X-100 (Sigma), 1% bovine serum albumin (BSA; Sigma) and 1.2 μg/ml of the anti-pRB^T mAb (clone G3-245; PharMingen cat. No. 14001A) conjugated with CYCHROME® and/or with 1 μg/ml of anti-pRB^P− mAb (clone G99-549; PharMingen cat. No. 14441A), conjugated with FITC and incubated for 2 hours at room temperature. The cells were then rinsed with PBS containing 1% BSA and their fluorescence was measured by flow cytometry.
Cellular fluorescence was measured with the ELITE ESP flow cytometer/cell sorter (Coulter Inc., Miami, Fla.) using either an argon ion laser (emission at 488 nm) alone or combined with a helium-cadmium laser (emitting UV light). In the first case, fluorescence signals were collected using the standard configuration of the flow cytometer (green fluorescence, representing FITC labeled anti-pRB^P− mAb; red fluorescence representing CyChrome tagged anti-pRB^T mAb). In the second case, DNA content was analyzed based on DAPI fluorescence (blue emission) excited by UV light, while the anti-pRB^P− mAb FITC-related emission and anti-pRB^T CYCHROME®-related emission was excited with blue light laser. Unless noted, the procedures for multicolor measurement of cellular fluorescence and multivariate cell analysis were essentially as described in Juan et al., Cell. Prolif. 29:259–266 (1996) and Juan et al., Exper. Cell Res. 227:197–202 (1996). The experiments were repeated several times, on lymphocytes obtained from three different donors, yielding essentially identical results.

[2] = test system: lymphocytes; settings: 20 nM; cited from earlier work
[3] = test system: cyclin D3; settings: lymphocytes, 20 nM; cited from earlier work
[4] = test system: HL-60 cells; assay: Cell cycle arrest and apoptosis of HL-60 cells during induced differentiation; type: cell-based, human
Experimental: Control cells were treated with an equivalent concentration of ethanol (<0.02%). […]

[5] = test system: total pRB; assay: pRB^T in differentiating HL-60 cells, flow cytometry; type: cell-based, human; settings: RA 5×10^−7 M 5 days, vitamin D3 10^−8 M 6 days
Experimental: (§2) The human promyelocytic leukemic cell line HL-60 was kindly provided by Dr. Harry A. Crissman of the Los Alamos National Laboratory (Los Alamos, N. Mex.). The cells were maintained in RPMI 1640 supplemented with 10% fetal calf serum, 100 units/ml penicillin, 100 μg/ml streptomycin, and 2 mM L-glutamine at a density between 2 and 8×10^5 cells/ml at 37.5° C. in the mixture of 95% air and 5% CO2 for the periods of time described in the legends to the respective figures. During the exponential phase of cell growth, at densities below 8×10^5 cells/ml, the mean duration of the cell cycle of these cells is 23 hours (estimated as described in Darzynkiewicz, “Mammalian cell cycle analysis,” in The Cell Cycle: A Practical Approach, P. Fantes and R. Brooks, Eds., pp. 45–68 (Oxford Univ. Press, Oxford, UK, (1993)), and the mean duration of G1, S, G2, and M 11, 9, 2, and 1 h, respectively. The medium, supplements, and antibiotics were obtained from Life Technologies (Grand Island, N.Y.).
(§3) All-trans retinoic acid (RA), 1,25-dihydroxy vitamin D3 (vitamin D3), and phorbol myristate acetate (PMA) were purchased from Sigma Chemical Co. (St. Louis, Mo.). […] Control cells were treated with an equivalent concentration of ethanol (<0.02%). Stock solution of PMA at 1.6 mM was prepared in DMSO, stored at −20° C. in the dark, and used at a final concentration of 4×10^−8 M. The cultures were kept shielded from light. […]
(§4) Methods were essentially as described in Example 1. […] The cells were then rinsed with PBS containing 1% BSA, counterstained with 4,6-diamidino-2-phenyl indole (DAPI) (Molecular Probes Inc., Eugene, Oreg.), and their fluorescence was measured by flow cytometry.
(§5) Cellular fluorescence was measured with the ELITE ESP flow cytometer/cell sorter (Coulter Inc., Miami, Fla.) using an argon ion laser (emission at 488 nm) combined with a helium-cadmium laser (emitting UV light). DNA content was analyzed based on DAPI fluorescence (blue emission) excited by UV light, while the anti-pRb^P− mAb (FITC)-related emission and anti-pRB^T (CYCHROME®)-related emission was excited with blue light laser. To obtain the mean fluorescence values as shown in FIGS. 7–10, the cells were gated based on differences in their DNA content to distinguish cells in G1, S, and G2/M, and from the mean values of the FITC fluorescence the mean value of the respective control cells (FITC-conjugated isotype-matched IgG1) in the same phase of the cycle was subtracted. The mean values of S phase cells were multiplied by 0.75 and of G2/M cells by 0.5 to express the pRB-associated cell fluorescence per unit of DNA. The data were normalized to the mean fluorescence value of G1 cells from the untreated, control culture (100), as shown in FIGS. 7–10.

[6] = test system: hypophosphorylated pRB; assay: pRB^P− in differentiating HL-60 cells, flow cytometry; type: cell-based, human; settings: RA 5×10^−7 M 5 days, vitamin D3 10^−8 M 6 days
Experimental: as §2, §3, §4, §5

[7] = test system: pRB; assay: Western blot of pRB in HL-60 cells with anti-pRB^P− and anti-pRB^T mAbs; type: cell-based, human; settings: HL-60, treated versus control
Text: FIG. 10 presents a Western blot showing reactivity of anti-pRB^P− mAb(A) and anti-pRB^T mAb with proteins extracted from control (CON) and PMA-treated cells.
To reveal specificity of the antibodies used in these experiments, a standard Western blotting procedure was used on cellular lysates, as described in Gong et al., Cell Growth Differ. 6:1485–1493 (1995).

[8] = test system: pRB; assay: pRB^P−/pRB^T ratio in differentiating HL-60 cells, flow cytometry; type: cell-based, human; settings: RA 5×10^−7 M 5 days, vitamin D3 10^−8 M 6 days
Experimental: Briefly, the cells were fixed in suspension in 1% formaldehyde in PBS for 15 min on ice, then washed with PBS, and resuspended in ice-cold 80% ethanol for up to 24 h. […] The cells were then rinsed with PBS containing 1% BSA, counterstained with 4,6-diamidino-2-phenyl indole (DAPI) (Molecular Probes Inc., Eugene, Oreg.), and their fluorescence was measured by flow cytometry.

[9] = test system: cyclin D3; assay: Cyclin D3 expression in mitogen-stimulated lymphocytes, flow cytometry; type: cell-based, Human; settings: 10 μg/ml
Experimental: as §1
After cell fixation (as described above) the cells were washed twice with PBS, suspended in 1 ml of 0.25% Triton X-100 in PBS, kept on ice for 5 min, centrifuged (300 g; 5 min) and the cell pellet resuspended in 100 μl of PBS containing 0.5 μg of the anti-cyclin D3 mAb (clone G107-565, mouse IgG,; PharMingen cat. No. 14781) and 1% BSA and incubated for 2 hours at room temperature. […] The cells were rinsed again, resuspended in 5 μg/ml of PI and 0.1% RNase in PBS and incubated at room temperature for 20 min prior to fluorescence measurements. Isotype-matched IgG (Sigma) was used as a control to define the background fluorescence. […]

[10] = test system: total pRB; assay: Total pRB in mitogen-stimulated lymphocytes, anti-pRB^T mAb flow cytometry; type: cell-based, Human; settings: 10 μg/ml, throughout all times of exposure
Experimental: as §1
The cells were washed with PBS and fixed in suspension in 1% formaldehyde in PBS for 15 min on ice. […] The cells were then rinsed with PBS containing 1% BSA and their fluorescence was measured by flow cytometry.
Cellular fluorescence was measured with the ELITE ESP flow cytometer/cell sorter (Coulter Inc., Miami, Fla.) using either an argon ion laser (emission at 488 nm) alone or combined with a helium-cadmium laser (emitting UV light). In the first case, fluorescence signals were collected using the standard configuration of the flow cytometer (green fluorescence, representing FITC labeled anti-pRB^P− mAb; red fluorescence representing CyChrome tagged anti-pRB^T mAb). […]

CN[C@@H]1C[C@H]2O[C@@](C)([C@@H]1OC)n1c3ccccc3c3c4c(c5c6ccccc6n2c5c31)C(=O)NC4 [STP, staurosporine]
appearance of the cell population unreactive with anti-pRB^P− mAb (pRB phosphorylation) ([1]; lymphocytes stimulated with PHA 24 hours, 20 nM): precluded the appearance of the cell population unreactive with anti-pRB^P− mAb | arrest of lymphocytes in cell cycle [2]: arrests lymphocytes in G1 | induction of cyclin D3 [3]: does not interfere with the induction of cyclin D3

C=C1/C(=C\C=C2/CCC[C@]3(C)[C@@H]([C@H](C)CCCC(C)(C)O)CC[C@@H]23)C[C@@H](O)C[C@@H]1O [vitamin D3, 1,25-dihydroxy vitamin D3]
cell cycle arrest on induced differentiation [4]: cell arrest primarily in G0/1 | increase in pRB^T of G0/1 cells versus untreated cultures [5]: 20% | pRB^T of S and G2/M cells versus untreated cultures [5]: nearly twofold higher | increase in pRB^P− of G0/1 cells [6]: fourfold | pRB^P− of S and G2/M phase cells versus control cultures [6]: over an order of magnitude higher

CCCCCCCCCCCCCC(=O)O[C@@H]1[C@@H](C)[C@@]2(O)[C@@H](C=C(CO)C[C@]3(O)C(=O)C(C)=C[C@@H]23)[C@@H]2C(C)(C)[C@]12OC(C)=O [PMA, phorbol myristate acetate]
cell cycle arrest on induced differentiation [4]: cell arrest primarily in G0/1 | bands of hypophosphorylated, hyperphosphorylated and total pRB, Western blot [7]: increased intensity bands

CC1=C(/C=C/C(C)=C/C=C/C(C)=C/C(=O)O)C(C)(C)CCC1 [RA, All-trans retinoic acid]
cell cycle arrest on induced differentiation [4]: cell arrest primarily in G0/1 | increase in pRB^T of G0/1 cells versus untreated cultures [5]: 60% | pRB^T of S and G2/M cells versus untreated cultures [5]: nearly twofold higher | increase in pRB^P− of G0/1 cells [6]: fourfold | pRB^P− of S and G2/M phase cells versus control cultures [6]: over an order of magnitude higher | pRB^P−/pRB^T level of S and G2/M phase cells versus control [8]: over fivefold higher

phytohemagglutinin [PHA]
proportion of cyclin D3-positive cells ([9]; at 12 h): ~70% | proportion of cyclin D3-positive cells ([9]; at 24 h): 40% | percentage of anti-pRB^P− mAb negative cells ([1]; 10 μg/ml, at 24 h): 45% | fraction of lymphocytes that did not react with anti-pRB^P− mAb ([1]; 10 μg/ml, between 4 and 12 hours): ~80% | percentage of anti-pRB^P− mAb negative cells ([1]; 10 μg/ml, decreasing from 98 between 3 and 4 hours of stimulation): about 20% | percentage of anti-pRB^P− mAb negative cells ([1]; 10 μg/ml, up to 14 h): about 20% | frequency of cells reactive with anti-pRB^T mAb [10]: over 80%
